Like-named read-outs stand apart in the source and are kept apart here. Values belong to the molecule of their own block, whether it stands above or below them.
Assays:
[1] = cited from earlier work
Caco-2 cells [2] = tested on: Caco-2 cells
MDCKII-MDR1 cells = assay: Monolayer integrity: lucifer yellow permeability, MDCKII-MDR1 (series 2); conditions: MDCKII-MDR1, series 2, 100 µM lucifer yellow
Method: For (2) and (3), passive permeability was assessed by supplementation of 100 µM lucifer yellow to all donor solutions.
Papp was calculated by dividing the flux with the measured donor concentration.

Caco-2 cells [3] = tested on: Caco-2 cells; remark: listed apart in the source

Molecule: polysorbate 20
critical micelle concentration (CMC) ([1]; in water, temperatures of 22–40 °C): 11 to 57 µM | critical micelle concentration (CMC) ([1]; room temperature): 11 to 42 µM

3H-mannitol permeability (Caco-2 cells [2]): 0.31–1.4 × 10^−6 cm/s
Molecule: OC[C@@H](O)[C@@H](O)[C@H](O)[C@H](O)CO [^3H-mannitol]

Molecule: lucifer yellow
Lucifer yellow permeability (MDCKII-MDR1 cells): 0.39–1.2 × 10^−6 cm/s | Lucifer yellow permeability (Caco-2 cells [3]): 0.15–1.1 × 10^−6 cm/s

— publication PMC9865188 (Pharmaceutics, 2023)
